Like-named read-outs stand apart in the source and are kept apart here.
Tests used:
human orexin 2 receptor = target: T1, human orexin 2 receptor (Homo sapiens, UniProt O43614); test: Assay B: OX2R IP1 (in vitro OX2R potency); type: cell-based; settings: Table 3; 0.5 nM Orexin A
T1 construct: stably expressing the full-length human orexin 2 receptor; expressed in transfected cells; host or cells: CHO-K1 (CHO-K1/hOx2), co-expressing the aequorin photoprotein
T1 sequence (O43614 1-444): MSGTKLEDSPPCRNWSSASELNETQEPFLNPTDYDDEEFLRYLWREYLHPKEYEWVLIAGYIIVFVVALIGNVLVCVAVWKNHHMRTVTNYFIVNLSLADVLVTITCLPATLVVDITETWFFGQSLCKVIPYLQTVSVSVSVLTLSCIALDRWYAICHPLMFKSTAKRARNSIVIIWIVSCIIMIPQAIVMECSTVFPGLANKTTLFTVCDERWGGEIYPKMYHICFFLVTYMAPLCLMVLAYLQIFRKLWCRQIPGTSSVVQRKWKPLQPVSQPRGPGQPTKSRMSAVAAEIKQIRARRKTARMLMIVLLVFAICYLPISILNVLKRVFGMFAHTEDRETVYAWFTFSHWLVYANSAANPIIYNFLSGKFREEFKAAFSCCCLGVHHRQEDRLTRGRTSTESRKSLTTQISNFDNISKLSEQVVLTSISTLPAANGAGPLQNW
Text: Activation of the orexin receptors expressed in cell lines results in an increase in intracellular IP3 concentration. IP1, a downstream metabolite of IP3, accumulates in cells following receptor activation and is stable in the presence of LiCl. Using Homogeneous Time-Resolved Fluorescence technology with Lumi4-Tb cryptate (commercially available from Cisbio Bioassay.) and a suitable fluorescence plate reader. […] Chem. Genomics 2009, 3, 22-32. This technique is used to characterize pharmacological modification of the orexin receptors.
B. In Vitro Testing of OX2R Potency: OX2R IP1
(§1) IP1 measurements are performed in CHO-K1 cells stably expressing the full-length human orexin 2 receptor and the aequorin photoprotein. Cells are cultivated in Ham's nutrient mixture F12 medium with 10% fetal calf serum, in a 37° C., 95% humidity and 5% CO2 incubator. The CHO-K1/hOx2 cell mass is expanded to larger cell numbers. The cells are obtained as frozen cells in cryo-vials and stored until use at −150° C. The viability of the cells after thawing is >90%. In preparation for the assay, 24 hours before the assay, the cells are thawed at 37° C. and immediately diluted with cell culture medium. After centrifugation, the cell pellet is resuspended in medium and then distributed into the assay plates with a density of 5000 cells/25 μL per well. The plates are incubated for one hour at room temperature to reduce edge effects before they are incubated for 24 hours at 37° C./5% CO2. Compounds are prepared by a 8-point serial dilution in DMSO and a final dilution step into assay buffer (HBSS with 20 mM HEPES, 0.1% BSA and 50 mM LiCl, pH 7.4) to ensure a final DMSO concentration of 1% in the assay.
(§2) On the day of the assay, cells in the plate are washed twice with 60 μL assay buffer (20 μL buffer remained in the wells after washing), followed by adding 5 μL per well of compounds diluted in assay buffer. After 15 minutes of incubation at room temperature 5 μL per well of Orexin A peptide (final concentration: 0.5 nM) dissolved in assay buffer is added to the assay plate. The assay plate is incubated for 60 minutes at 37° C. Then 5 μl per well of Anti-IP1-Cryptate Tb solution and 5 μl per well of IP1-d2 dilution are added to all well of the plate and the plate is incubated for a further 60 minutes light protected at room temperature. The emission at 615 nm and 665 nm (Excitation wavelength: 320 nm) are measured using an EnVision reader (PerkinElmer). The ratio between the emission at 665 nm and 615 is calculated by the reader.
(§3) 8-point four parametric non-linear curve fitting and determination of 1050 values and Hill slopes is performed using a regular analysis software e.g. AssayExplorer (Accelrys). In order to establish an agonist concentration independent parameter, Kb values are calculated using the following equation: IC50/((2+(A/EC50)^n)^1/n−1) (with A=concentration agonist, EC50=EC50 agonist, n=Hill slope agonist) (see P. Leff, I. G. Dougall, Trends Pharmacol. Sci. 1993, 14(4), 110-112).

human Orexin 1 receptor = target: T2, human Orexin 1 receptor (Homo sapiens, UniProt O43613); test: Assay A: OX1R IP1 (in vitro OX1R potency); type: cell-based; settings: for Kb: Table 3, read-out: Assay A OX1R Kb (Orexin A concentration); for OX1R potency compared to Example 91 in WO2016/034882 / OX1R selectivity over OX2R (selectivity ratio OX2R Kb/OX1R Kb) compared to Example 91 in WO2016/034882: versus Example 91 in WO2016/034882
T2 construct: stably expressing the full-length human Orexin 1 receptor; expressed in transfected cells; host or cells: CHO-K1 (CHO-K1/hOx1), co-expressing the aequorin photoprotein
T2 sequence (O43613 1-425): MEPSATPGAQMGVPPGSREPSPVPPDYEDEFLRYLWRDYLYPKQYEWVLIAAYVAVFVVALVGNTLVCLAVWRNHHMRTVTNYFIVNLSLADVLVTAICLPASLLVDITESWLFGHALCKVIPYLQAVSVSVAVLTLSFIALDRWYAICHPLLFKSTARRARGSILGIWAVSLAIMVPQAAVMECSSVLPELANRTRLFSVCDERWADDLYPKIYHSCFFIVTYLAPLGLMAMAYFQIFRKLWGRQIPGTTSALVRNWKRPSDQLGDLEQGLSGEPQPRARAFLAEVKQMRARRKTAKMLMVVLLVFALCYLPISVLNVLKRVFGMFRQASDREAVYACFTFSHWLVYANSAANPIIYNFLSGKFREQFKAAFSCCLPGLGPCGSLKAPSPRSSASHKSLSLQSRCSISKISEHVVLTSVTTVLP
Text: Activation of the orexin receptors expressed in cell lines results in an increase in intracellular IP3 concentration. IP1, a downstream metabolite of IP3, accumulates in cells following receptor activation and is stable in the presence of LiCl. Using Homogeneous Time-Resolved Fluorescence technology with Lumi4-Tb cryptate (commercially available from Cisbio Bioassay.) and a suitable fluorescence plate reader. […] This technique is used to characterize pharmacological modification of the orexin receptors.
A. In Vitro Testing of OX1R Potency: OX1R IP1
as §1, with “human Orexin 1” for “human orexin 2”, “The CHO-K1/hOx1” for “The CHO-K1/hOx2”, “C. […]” for “C. The viability of the cells after thawing is >90%.”, “is re-suspended” for “is resuspended”, “of 10000” for “of 5000”, “by an” for “by a”
as §2, with “0.5 nM and/or 50” for “0.5”, “added” for “added to all well of the plate”, “temperature.” for “temperature. The emission at 615 nm and 665 nm (Excitation wavelength: 320 nm) are measured using an EnVision reader (PerkinElmer). The ratio between the emission at 665 nm and 615 is calculated by the reader.”
as §3, with “IC50” for “1050”, “agonist).” for “agonist) (see P. Leff, I. G. Dougall, Trends Pharmacol. Sci. 1993, 14(4), 110-112).”

| SMILES | Kb (human orexin 2 receptor) [nM] | OX2R Kb/OX1R Kb (human Orexin 1 receptor) | Kb (human Orexin 1 receptor; 0.5 nM Orexin A) [nM] | OX1R potency compared to Example 91 in WO2016/034882 (human Orexin 1 receptor; in words) | OX1R selectivity over OX2R (selectivity ratio OX2R Kb/OX1R Kb) compared to Example 91 in WO2016/034882 (human Orexin 1 receptor; in words) | Kb (human Orexin 1 receptor; 50 nM Orexin A) [nM] | OX1R selectivity compared to Example 14 in WO2016/034882 (human Orexin 1 receptor; in words, versus Example 14 in WO2016/034882) |
| --- | --- | --- | --- | --- | --- | --- | --- |
| CCN(C(=O)c1ccc(OC)cc1-n1nccn1)[C@@H](C)COc1ncc(C(F)(F)F)cn1 [Example 30] | 579 | 322 | 1.8 | increase | increase | – | – |
| CCN(C(=O)c1ccccc1-c1nc(C)no1)[C@@H](C)COc1ncc(C(F)(F)F)cn1 [Example 15] | 999 | 128 | 7.8 | – | increase in OX1R selectivity | – | – |
| CCN(C(=O)c1cc(C)ccc1-n1nccn1)[C@@H](C)COc1ncc(C(F)(F)F)cn1 [Example 5] | 156 | – | 1 | increase | increase | 1.1 | – |
| CCN(C(=O)c1ccccc1-c1ncccn1)[C@@H](C)COc1ncc(C(F)(F)F)cn1 [Example 28] | 176 | – | 0.62 | – | – | 0.74 | increase in OX1R selectivity |
| CCN(C(=O)c1ccc(C)c(C)c1-n1nccn1)[C@@H](C)COc1ncc(C(F)(F)F)cn1 [Example 10] | 565 | 869 | – | increase | increase | 0.65 | – |
| CCN(C(=O)c1ccc(C)cc1-n1nccn1)[C@@H](C)COc1ncc(C(F)(F)F)cn1 [Example 13] | 142 | – | 0.5 | increase | increase | 0.38 | – |
| CCN(C(=O)c1ccccc1-c1ncco1)[C@@H](C)COc1ncc(C(F)(F)F)cn1 [Example 36] | 511 | 160 | 3.2 | – | increase in OX1R selectivity | – | – |
| CCN(C(=O)c1ccc(F)c(F)c1-n1nccn1)[C@@H](C)COc1ncc(C(F)(F)F)cn1 [Example 35] | 455 | 182 | 2.5 | – | more selective | – | – |
| CCN(C(=O)c1ccc(F)cc1-n1nccn1)[C@@H](C)COc1ncc(C(F)(F)F)cn1 [Example 7] | 902 | 201 | 4.5 | – | more selective | – | – |
| CCN(C(=O)c1cccc(F)c1-c1nnc(C)o1)[C@@H](C)COc1ncc(C(F)(F)F)cn1 [Example 18] | 6640 | 415 | 16 | – | increase in OX1R selectivity | – | – |
| CCN(C(=O)c1cc(F)ccc1-n1nccn1)[C@@H](C)COc1ncc(C(F)(F)F)cn1 [Example 20] | 803 | 309 | 2.6 | – | more selective | – | – |
| CCN(C(=O)c1cccc(F)c1-n1nccn1)[C@@H](C)COc1ncc(Br)cn1 [Example 29] | 350 | 178 | 2 | – | increase in OX1R selectivity | – | – |
| CCN(C(=O)c1cc(C)c(C)cc1-n1nccn1)[C@@H](C)COc1ncc(C(F)(F)F)cn1 [Example 2] | 34 | 87 | – | increase in OX1R potency | – | 0.39 | – |
| CCN(C(=O)c1c(-n2nccn2)ccc(C)c1F)[C@@H](C)COc1ncc(C(F)(F)F)cn1 [Example 34] | 431 | 239 | 1.8 | increase in OX1R potency | increase in OX1R selectivity | – | – |
| CCN(C(=O)c1ccccc1-c1cnc(C)o1)[C@@H](C)COc1ncc(C(F)(F)F)cn1 [Example 31] | 746 | 124 | 6 | – | increase in OX1R selectivity | – | – |
| CCN(C(=O)c1ccccc1-c1noc(C)n1)[C@@H](C)COc1ncc(C(F)(F)F)cn1 [Example 23] | 435 | 207 | 2.1 | – | increase in OX1R selectivity | – | – |
